From patent publication US20230008571A1, “CYCLIC COMPOUNDS FOR TREATING CARDIOVASCULAR DISORDERS AND WOUNDS” (University of South Florida, priority 2021, published 2023)

Target: T1, EGFR (Homo sapiens, UniProt P00533)
T1 construct: A549 cells were chosen due to their elevated expression of EGFR; endogenous in cells; host or cells: A549
Experiment: Western blot of EGF-induced EGFR phosphorylation in A549 cells
Type: cell-based
Protocol: A549 cells were chosen due to their elevated expression of EGFR.
A549 cells were seeded into a 6-well plate at a concentration of 1×10^5 cells/well. After 12 h attachment at 37° C. and 5% CO2, the cells were starved overnight in serum-reduced DMEM followed by treatment with different concentration of M-2-2 for 4 h. […] Subsequently, the cells were incubated on ice for 10 min and centrifuged at 14,000×g at 4° C. for 10 min. […] The experiments were conducted in triplicates and repeated for three times.

T1 sequence (P00533 25-1210): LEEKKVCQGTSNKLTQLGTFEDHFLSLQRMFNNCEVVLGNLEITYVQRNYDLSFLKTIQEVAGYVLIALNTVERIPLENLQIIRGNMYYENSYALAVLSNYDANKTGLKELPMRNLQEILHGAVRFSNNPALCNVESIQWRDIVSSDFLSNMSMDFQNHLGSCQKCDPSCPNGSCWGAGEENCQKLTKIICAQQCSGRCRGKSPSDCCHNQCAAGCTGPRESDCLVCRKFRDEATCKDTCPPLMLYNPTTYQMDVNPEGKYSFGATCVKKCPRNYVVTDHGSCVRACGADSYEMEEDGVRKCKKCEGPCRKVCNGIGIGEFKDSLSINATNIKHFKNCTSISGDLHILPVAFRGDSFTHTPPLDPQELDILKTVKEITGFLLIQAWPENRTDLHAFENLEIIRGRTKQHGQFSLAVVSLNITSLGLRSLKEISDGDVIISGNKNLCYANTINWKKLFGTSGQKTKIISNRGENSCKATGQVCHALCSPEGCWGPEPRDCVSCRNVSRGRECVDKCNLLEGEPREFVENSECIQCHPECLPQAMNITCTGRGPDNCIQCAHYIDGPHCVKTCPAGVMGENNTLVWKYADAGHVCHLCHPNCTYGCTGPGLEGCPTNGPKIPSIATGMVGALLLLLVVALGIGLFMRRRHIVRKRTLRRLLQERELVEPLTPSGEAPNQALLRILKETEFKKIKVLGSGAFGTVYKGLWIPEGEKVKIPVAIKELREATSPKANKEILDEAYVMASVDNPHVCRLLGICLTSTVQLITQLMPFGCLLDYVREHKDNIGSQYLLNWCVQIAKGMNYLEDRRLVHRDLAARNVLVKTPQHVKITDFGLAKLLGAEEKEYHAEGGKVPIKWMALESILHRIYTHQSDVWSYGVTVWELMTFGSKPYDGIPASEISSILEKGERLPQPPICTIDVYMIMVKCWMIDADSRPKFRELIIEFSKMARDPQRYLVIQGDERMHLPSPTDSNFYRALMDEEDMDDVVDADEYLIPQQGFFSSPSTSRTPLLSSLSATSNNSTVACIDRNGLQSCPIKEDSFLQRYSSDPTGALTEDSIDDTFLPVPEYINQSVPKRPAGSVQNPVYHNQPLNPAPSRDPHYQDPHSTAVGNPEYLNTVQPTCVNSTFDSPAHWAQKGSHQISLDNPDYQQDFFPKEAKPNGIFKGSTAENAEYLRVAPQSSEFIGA

## CC[C@H]1CN(C(=O)CCC2CCCCC2)CC(=O)N[C@@H](CC)CN(C(=O)Cc2ccc3c(c2)OCO3)CC(=O)N[C@@H](CC(C)C)CN(CC(N)=O)C(=O)CCSCc2ccc(cc2)C(=O)N[C@@H](CC(C)C)CN(C(=O)Cc2ccc3c(c2)OCO3)CC(=O)N1 [M-2-2]
Starved A549 cells, 20 μM, 4 h pretreatment, then 100 ng/mL EGF, western blot, P-EGFR/GAPDH
  effect on phosphorylation level of EGFR (P-EGFR) in the presence of EGF: enhance the activation of EGFR
Western blot with anti-phosphorylated AKT and ERK, concentration not given
  effect on downstream signal transduction of EGF stimulated EGFR: enhance
